Measurements as given in paper PMC7070898 (Clinical and Translational Science, 2019).

Tests used:
[1] = Plasma pharmacokinetics, noncompartmental, SAD/MAD trial; type: in vivo, human; conditions: for Vd/F / half-life: human, in vivo; for Vd/F: Vz/F, N 9, geometric mean (CV% GM)
[2] = Holter ECG, concentration-QTcF, by-time point and categorical analysis; type: in vivo, human; conditions: for mean ΔΔQTcF, by‐time point analysis: 100 mg dose group (n = 6); for Predicted mean ΔΔQTcF: linear mixed model; for Cmax: human, in vivo, Geometric mean Cmax
[3] = tested on: B cell and basophil activation; conditions: human cellular assays ref 8; cited from earlier work
[4] = tested on: interferon‐accelerated systemic lupus erythematosus; conditions: mouse model of interferon‐accelerated systemic lupus erythematosus ref 8; cited from earlier work
[5] = tested on: collagen‐induced arthritis; conditions: collagen‐induced arthritis mouse model ref 8; cited from earlier work
[6] = tested on: experimental autoimmune encephalomyelitis; conditions: B cell‐dependent and T cell‐dependent EAE mouse models ref 9, 10; cited from earlier work

Structure (SMILES): C=CC(=O)N1CCC(CNc2ncnc(N)c2-c2ccc(Oc3ccccc3)cc2)CC1 [evobrutinib]
- Vd/F ([1]; 25 mg, multiple-dose study day 1, 25 mg): 498 L
- Vd/F ([1]; 75 mg, multiple-dose study day 1, 75 mg): 620 L
- Vd/F ([1]; 200 mg, multiple-dose study day 1, 200 mg): 647 L
- half-life ([1]; 500 mg, geometric mean terminal half‐life (t1/2), single doses 350 and 500 mg): 6.6 to 6.8 h
- half-life ([1]; geometric mean terminal half‐life (t1/2), single doses 25–200 mg): 1.8 to 2.6 h
- half-life ([1]; half‐life (relevant t1/2), overall summary, all doses): ~2 h
- dose proportionality of AUC0–24h and Cmax ([1]; multiple dosing of 25–200 mg, power model): Dose proportionality of AUC0–24h and Cmax was demonstrated
- time dependency of PK ([1]; part 2, day 14 vs day 1): no time dependency
- Apparent clearance across doses ([1]; single dosing 25–500 mg, part 1): 2,553–3,995 mL/minute
- Geometric mean Cmax ([2]; 25 mg dose group, day 1, parts 1 and 2 pooled): 86.48 ng/mL
- treatment‐emergent T wave morphological abnormalities ([2]; 50 mg and 100 mg dose groups, day 1, 6‐hour and 8‐hour postdose): reported in two evobrutinib‐treated subjects
- mean ΔΔQTcF, by‐time point analysis ([2]; 6‐hour postdose): 7.1 ms
- mean ΔΔQTcF, by‐time point analysis ([2]; 8‐hour postdose): 5.6 ms
- mean ΔΔQTcF range ([2]; 100 mg dose group, three time points): 5.6 to 7.2 ms
- Geometric mean Cmax ([2]; 500 mg dose group, day 1): 1,512.3 ng/mL
- subjects with change from baseline in QTcF between 30 ms and 60 ms ([2]; 2 of 81 subjects, both in the 200 mg dose group): 2.5%
- mean ΔΔQTcF over the range of doses ([2]; all time points, except the 100 mg dose group): < 5 ms
- absolute QTcF value ([2]; any dose group, any time point): ≤ 450 ms
- Predicted mean ΔΔQTcF ([2]; at geometric mean Cmax of 75 mg dose group): -0.82 ms
- Predicted mean ΔΔQTcF ([2]; at geometric mean Cmax of 200 mg dose group): -0.94 ms
- Predicted mean ΔΔQTcF ([2]; at geometric mean Cmax of 350 mg dose group): -0.98 ms
- Cmax ([2]; 50 mg, 50 mg dose group, day 1): 234 ng/mL
- Cmax ([2]; 75 mg, 75 mg dose group, day 1): 254 ng/mL
- Cmax ([2]; 100 mg, 100 mg dose group, day 1): 309 ng/mL
- Cmax ([2]; 350 mg, 350 mg dose group, day 1): 846 ng/mL
- inhibition of B cell and basophil activation [3]: potently inhibits B cell and basophil activation
- disease activity [4]: robust reduction in disease activity
- rheumatoid arthritis‐like symptoms [5]: rheumatoid arthritis‐like symptoms were inhibited
- central nervous system inflammation and disease severity [6]: limited central nervous system inflammation and disease severity
